Experiments:
[1] = system: luciferase-expressing prostate cancer line PC3/ML; experiment: Metastatic prostate cancer model, bioluminescent imaging; type: in vivo, NOD/SCID/IL2rγ^null (NSG) mice; settings: triptolide 0.2 mg/kg, G4 1 mg/kg
Method: FIG. 3. Effects of triptolide and glucose-triptolide conjugate G4 in a metastatic mouse prostate cancer model. The injected prostate cancer cells expressed luciferase, which was detected by imaging of live animals.
(§1) The in vivo antitumor activity of the glucose-triptolide conjugate G4 was determined using an established metastatic prostate cancer model (Reference 1). In this model, the luciferase-expressing prostate cancer line PC3/ML was injected into NOD/SCID/IL2rγ^null (NSG) mice through the tail vein. The metastasis of the injected prostate cancer cells into liver, kidney, lung and bone can be monitored in live animals by bioluminescent imaging (BLI). It was shown that this is a reliable model with reproducible liver metastasis and all animals succumb by Week 7 after injection of cells (or Week 4 after initiation of treatments). […] Three weeks after cell injection, each compound was given once daily by IP at those doses for a total of 4 weeks. The surviving animals were continuously monitored upon termination of compound administration.

[2] = Preliminary experiments on tolerable treatment dose; type: in vivo; settings: mice
Method: as §1

Structure (SMILES): CC(C)[C@]12O[C@H]1[C@@H]1O[C@]13[C@]1(O[C@H]1C[C@H]1C4=C(CC[C@@]13C)C(=O)OC4)[C@@H]2O [triptolide]
- tumor after termination of compound administration ([1]; after 4 weeks of once daily IP, till end of experiment): tumors immediately returned
- tumor cells at the end of Week 4 of treatment ([1]; once daily IP for 4 weeks, BLI): undetectable tumor cells
- tolerable treatment dose [2]: 0.2 mg/kg

Source: patent US10695319B2, “Glucose conjugates of triptolide, analogs and uses thereof” (The Johns Hopkins University, priority 2016, dated 2020)
